The IC50 is the midpoint of a concentration-inhibition curve.

Drawing on patent US7879844B2, “Heterocyclic janus kinase 3 inhibitors” (Astellas Pharma Inc., priority 2005, dated 2011), this text covers IC50 for 14 compounds.

The target of this assay is T1, human JAK3 kinase domain (Homo sapiens, UniProt P52333).
T1 construct: attached to the N-terminal of the 796-1124 (C-terminal) fragment of the human JAK3 protein; His-tag (N); purchased Carna Biosciences, Inc. (Kobe, Japan); host or cells: baculovirus expression system
T1 sequence (P52333 796-1124): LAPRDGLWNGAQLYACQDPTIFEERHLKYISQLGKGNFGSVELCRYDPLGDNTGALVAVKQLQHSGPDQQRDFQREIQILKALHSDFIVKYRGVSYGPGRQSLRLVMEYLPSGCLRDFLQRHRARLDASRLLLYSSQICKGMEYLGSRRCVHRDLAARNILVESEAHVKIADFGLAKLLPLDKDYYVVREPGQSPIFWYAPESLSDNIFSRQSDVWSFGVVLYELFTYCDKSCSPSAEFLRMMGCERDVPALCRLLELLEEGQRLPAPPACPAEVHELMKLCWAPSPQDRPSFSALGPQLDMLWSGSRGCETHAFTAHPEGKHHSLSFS
The experiment in a line: JAK3 inhibition test. In kind it is biochemical. To be noted: purified human JAK3 kinase domain; Biotin-Lyn-Substrate-2, 20 μM ATP in substrate solution; absorbance at 450 nm; read-out: IC50 (JAK3 inhibitory activity). How it is done: The JAK3 inhibition test was performed as described below according to the method of Okimoto et al.
Purified human JAK3 kinase domain was purchased from Carna Biosciences, Inc. (Kobe, Japan). This is obtained as described below. His-tag (41 kDa) was attached to the N-terminal of the 796-1124 (C-terminal) fragment of the human JAK3 protein (accession number #NM_000215), expressed using baculovirus expression system, and then purified using Ni-NTA affinity column chromatography.
After incubation at ambient temperature for one hour, the plate was washed with a cleaning buffer (50 mM Tris-HCl pH 7.5, 150 mM NaCl, 0.02% Tween 20), and a blocking buffer (a cleaning buffer containing 0.1% bovine serum albumin) was added to the plate. After incubation at ambient temperature for 30 minutes, the blocking buffer was removed, and an HRP-PY-20 solution (obtained by diluting HRP-PY-20 solution with the blocking buffer 500 times) was added. After incubation at ambient temperature for 30 minutes, the plate was washed four times, and a TMB substrate solution (Sigma) was added to the plate. After incubation at ambient temperature for four minutes, 1M sulfuric acid was added to stop the reaction. Enzyme activity was measured as absorbance at 450 nm. The efficacy of the test compound as a JAK3 inhibitor was expressed as an IC50 value.
Regarding `O[C@]12CC3C[C@H](C1)[C@H](Nc1c(-c4nnco4)cnc4[nH]ccc14)[C@@H](C3)C2` (relative stereo) [Example 29, rel-(1s,3R,4R,5S)-4-{[5-(1,3,4-oxazole-2-yl)-1H-pyrrolo[2,3-b]pyridine-4-yl]amino}adamantan-1-ol], the IC50 came to 2.3 nM.
On to `COCCNC(=O)C(=O)Nc1nn([C@H]2C3CC4CC2C[C@@](O)(C4)C3)c2c1cnc1[nH]ccc12` [Example 32, cis-N-{1-[(1R,2R,3S,5s)-5-hydroxyadamantan-2-yl]-1,6-dihydropyrazolo[3,4-d]pyrrolo[2,3-b]pyridine-3-yl}-N′-(2-methoxyethyl)ethanediamide], for which the IC50 was 1.9 nM.
In the case of `CNC(=O)C(=O)Nc1nn([C@H]2[C@@H]3CC4C[C@H]2C[C@@](O)(C4)C3)c2c1cnc1[nH]ccc12` [Example 33, cis-N-{1-[(1R,2R,3S,5s)-5-hydroxyadamantan-2-yl]-1,6-dihydropyrazolo[3,4-d]pyrrolo[2,3-b]pyridine-3-yl}-N′-methylethanediamide], the concentration for half-maximal inhibition (IC50) stood at 2.1 nM.
On to `Nc1nnc(-c2cnc3[nH]ccc3c2N[C@H]2C3CC4CC2C[C@@](O)(C4)C3)s1` [Example 34, (1s,4r)-4-{[5-(5-amino-1,3,4-thiadiazole-2-yl)-1H-pyrrolo[2,3-b]pyridine-4-yl]amino}adamantan-1-ol], for which the 50% inhibitory concentration (IC50) turned out to be 0.17 nM.
In the case of `NC(=O)c1cnc2[nH]ccc2c1N[C@@H]1C[C@H]2CC[C@@H]1C2` [Example 133] it was 4.4 nM; in that of `N#Cc1ccc(N2[C@@H]3CC[C@H]2C[C@H](Nc2c(C(N)=O)cnc4[nH]ccc24)C3)nc1` [Example 143], 0.69 nM; in that of `O=C(CO)c1cnc2[nH]ccc2c1N[C@H]1C2CC3CC1C[C@@](O)(C3)C2` [Example 379], 1.2 nM.
The same measure for `CN(CC#N)C(=O)C12CC3CC(C1)C(n1c(=O)[nH]c4cnc5[nH]ccc5c41)C(C3)C2` (centres unmarked) [Example 384]: 0.28 nM; for `N#CCCOC12CC3CC(C1)C(n1c(=O)[nH]c4cnc5[nH]ccc5c41)C(C3)C2` (centres unmarked) [Example 405]: 0.65 nM.
The same measure for `N#CC12CC3CC(C1)C(Nc1c(C(N)=O)cnc4[nH]cnc14)C(C3)C2` (centres unmarked) [Example 426]: 2.3 nM.
Take `CO[C@H]1CC[C@H](NC(=O)C(=O)Nc2nn([C@H]3[C@@H]4CC5C[C@H]3C[C@@](O)(C5)C4)c3c2cnc2[nH]ccc23)CC1` [Example 434]: the half-inhibitory concentration (IC50) was determined as 0.86 nM.
Turning to `OCc1noc(-c2cnc3[nH]ccc3c2N[C@H]2C3CC4CC2C[C@@](O)(C4)C3)n1` [Example 484], the half-inhibitory concentration (IC50) came out at 0.31 nM.
In the case of `N#CCCOC12CC3CC(C1)C(n1[nH]c(=O)c4cnc5[nH]ccc5c41)C(C3)C2` (centres unmarked) [Example 498] it was 1.3 nM; in that of `N#Cc1ccc(N2[C@@H]3CC[C@H]2C[C@H](Nc2c(C(N)=O)cnc4[nH]ccc24)C3)nn1` [Example 543], 0.33 nM.
